Measured values: patent US7605165B2, “Phenylalanine derivatives” (Ajinomoto Co., Inc., priority 2002, dated 2009)

Experiments:
integrin α4β1 = molecular target: T1, integrin α4β1 (Homo sapiens, UniProt P05556+P13612); test: Assessment of VCAM-1/α4β1 binding antagonist activity (Jurkat cells binding to VCAM-1); type: cell-based; settings: Jurkat human T cells binding to recombinant human VCAM-1; read-out: integrin VCAM/α4 binding antagonistic activity (IC50) α4β1
T1 construct: cell strain Jurkat (ATCC TIB-152) of human T cells, known to express integrin α4β1; endogenous in cells; host or cells: Jurkat (ATCC TIB-152), human T cells
Description: The capacity of a test substance antagonistic to the binding of cell strain Jurkat (ATCC TIB-152) of human T cells, known to express integrin α4β1, to VCAM-1 was determined.
(§1) 100 μl/well of a solution (500 ng/ml) of recombinant human VCAM-1 (R & D systems) solution diluted with buffer A (0.1 M NaHCO3, pH 9.6) was added to a micro titer plate having 96 wells (Nunc Maxisorp). After the incubation at 4° C. overnight, unbound VCAM-1 was removed by washing once with PBS. After completion of the washing, a buffer (buffer B) obtained by diluting Block Ace (Dainippon Pharmaceutical Co., Ltd.) with PBS to 1/4 concentration was added in an amount of 150 μl/well. After the incubation at room temperature for 1 hour, buffer B was removed and the plate was washed with PBS once.
Jurkat cells were washed with Dulbecco modified Eagle medium (SIGMA, hereinafter referred to as “DMEM”) twice and then incubated in DMEM containing 10 μg/ml of Calcein-AM (Wako Pure Chemical Industries, Ltd.) at 37° C. in dark place for 30 minutes to label with fluorescence. The cells were again suspended in a binding buffer (20 mM HEPES, DMEM containing 0.1% BSA).
(§2) 50 μl of a test substance of various concentrations obtained by the dilution with the binding buffer was added to the plate. Immediately thereafter, 50 μl (final volume: 100 μl/well) of the fluorescent Jurkat cells (4×10^6 cells/ml) were added thereto, and they were incubated in dark place at room temperature for 30 minutes. After the shaking on a plate shaker (IKA MTS-4) at 800 rpm for 30 seconds, the solution was immediately removed to remove the unbound cells. The fluorescence quantity of the bound cells remaining in the wells was determined with a fluorescent plate reader (Wallac 1420 ARVO multi-label counter) (filter excitation wave length: 485 nm, emission wave length: 535 nm). The fluorescent strength thus obtained is proportional to the number of Jurkat cells bound to VCAM-1 and remaining on the plate. The binding rate of each test material in various concentrations was determined while the fluorescent strength of the test material-free well was determined to be 100%.

integrin α4β7 = molecular target: T2, integrin α4β7 (Homo sapiens, UniProt P13612+P26010); test: Assessment of VCAM-1/α4β7 binding antagonistic activity (RPMI-8866 cells binding to VCAM-1); type: cell-based; settings: RPMI-8866 human B lymphoma cells binding to recombinant human VCAM-1, binding buffer with 4 mM MnCl2; read-out: integrin VCAM/α4 binding antagonistic activity (IC50) α4β7
T2 construct: lymphoma cell strain RPMI-8866 of human B cells, known to express integrin α4β7; endogenous in cells; host or cells: RPMI-8866, human B-cell lymphoma line
T2 sequence (P13612 34-1032): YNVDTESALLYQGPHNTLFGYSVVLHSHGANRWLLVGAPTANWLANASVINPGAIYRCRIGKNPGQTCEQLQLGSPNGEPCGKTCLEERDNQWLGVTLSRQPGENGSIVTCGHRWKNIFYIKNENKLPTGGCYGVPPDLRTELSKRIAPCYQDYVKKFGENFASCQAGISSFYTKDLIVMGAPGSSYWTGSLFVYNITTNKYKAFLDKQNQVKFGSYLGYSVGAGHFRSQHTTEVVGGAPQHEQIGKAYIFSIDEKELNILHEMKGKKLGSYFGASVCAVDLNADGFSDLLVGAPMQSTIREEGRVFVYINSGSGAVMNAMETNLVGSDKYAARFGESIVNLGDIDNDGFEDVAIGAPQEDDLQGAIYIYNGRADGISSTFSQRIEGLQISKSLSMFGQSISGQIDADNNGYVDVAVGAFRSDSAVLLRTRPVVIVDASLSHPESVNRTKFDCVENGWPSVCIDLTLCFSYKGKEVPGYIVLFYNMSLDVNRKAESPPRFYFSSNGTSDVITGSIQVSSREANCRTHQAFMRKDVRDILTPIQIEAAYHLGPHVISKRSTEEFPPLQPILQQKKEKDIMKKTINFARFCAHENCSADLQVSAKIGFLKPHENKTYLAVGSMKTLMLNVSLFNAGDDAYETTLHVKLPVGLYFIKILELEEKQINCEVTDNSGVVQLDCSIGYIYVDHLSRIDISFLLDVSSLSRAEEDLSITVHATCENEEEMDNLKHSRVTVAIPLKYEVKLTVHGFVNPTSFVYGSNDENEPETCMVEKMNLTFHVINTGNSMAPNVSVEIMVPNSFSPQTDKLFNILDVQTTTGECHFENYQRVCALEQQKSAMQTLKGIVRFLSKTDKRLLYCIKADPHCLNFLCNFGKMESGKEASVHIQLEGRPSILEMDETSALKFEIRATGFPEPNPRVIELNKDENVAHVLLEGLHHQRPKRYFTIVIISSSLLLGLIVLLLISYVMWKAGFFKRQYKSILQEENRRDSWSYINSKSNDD
T2 sequence (P26010 20-798): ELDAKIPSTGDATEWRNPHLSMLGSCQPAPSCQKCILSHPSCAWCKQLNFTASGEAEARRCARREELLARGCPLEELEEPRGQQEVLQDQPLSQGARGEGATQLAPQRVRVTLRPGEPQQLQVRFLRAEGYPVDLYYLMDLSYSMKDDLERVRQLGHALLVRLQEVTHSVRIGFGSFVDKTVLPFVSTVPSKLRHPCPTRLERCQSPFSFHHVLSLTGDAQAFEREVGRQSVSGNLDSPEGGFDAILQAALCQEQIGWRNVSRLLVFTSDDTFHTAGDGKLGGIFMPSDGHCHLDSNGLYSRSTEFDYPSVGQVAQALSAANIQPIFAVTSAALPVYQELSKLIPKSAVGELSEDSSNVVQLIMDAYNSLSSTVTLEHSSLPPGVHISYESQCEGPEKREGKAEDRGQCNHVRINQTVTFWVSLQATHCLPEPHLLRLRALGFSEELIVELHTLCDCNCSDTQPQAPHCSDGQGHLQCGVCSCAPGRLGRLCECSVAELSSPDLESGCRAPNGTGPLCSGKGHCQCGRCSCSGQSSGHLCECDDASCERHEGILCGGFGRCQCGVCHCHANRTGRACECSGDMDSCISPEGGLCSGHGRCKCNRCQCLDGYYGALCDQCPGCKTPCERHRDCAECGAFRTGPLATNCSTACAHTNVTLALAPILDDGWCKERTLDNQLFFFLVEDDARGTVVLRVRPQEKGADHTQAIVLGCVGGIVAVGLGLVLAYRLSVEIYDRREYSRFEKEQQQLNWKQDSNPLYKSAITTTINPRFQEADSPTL
Description: The capacity of a test substance antagonistic to the binding of lymphoma cell strain RPMI-8866 of human B cells, known to express integrin α4β7, to VCAM-1 was determined.
as §1
RPMI-8866 cells were washed with DMEM twice and incubated in Dulbecco modified Eagle medium containing 10 μg/ml of Calcein-AM (Wako Pure Chemical Industries, Ltd.) (SIGMA, hereinafter referred to as “DMEM”) in dark place at 37° C. for 30 minutes to label with fluorescence. The cells were again suspended in a binding buffer (20 mM HEPES, DMEM containing 0.1% BSA) containing 4 mM of MnCl2.
as §2, with “RPMI-8866” for “Jurkat”

T1 sequence (P05556 21-798, one chain of several): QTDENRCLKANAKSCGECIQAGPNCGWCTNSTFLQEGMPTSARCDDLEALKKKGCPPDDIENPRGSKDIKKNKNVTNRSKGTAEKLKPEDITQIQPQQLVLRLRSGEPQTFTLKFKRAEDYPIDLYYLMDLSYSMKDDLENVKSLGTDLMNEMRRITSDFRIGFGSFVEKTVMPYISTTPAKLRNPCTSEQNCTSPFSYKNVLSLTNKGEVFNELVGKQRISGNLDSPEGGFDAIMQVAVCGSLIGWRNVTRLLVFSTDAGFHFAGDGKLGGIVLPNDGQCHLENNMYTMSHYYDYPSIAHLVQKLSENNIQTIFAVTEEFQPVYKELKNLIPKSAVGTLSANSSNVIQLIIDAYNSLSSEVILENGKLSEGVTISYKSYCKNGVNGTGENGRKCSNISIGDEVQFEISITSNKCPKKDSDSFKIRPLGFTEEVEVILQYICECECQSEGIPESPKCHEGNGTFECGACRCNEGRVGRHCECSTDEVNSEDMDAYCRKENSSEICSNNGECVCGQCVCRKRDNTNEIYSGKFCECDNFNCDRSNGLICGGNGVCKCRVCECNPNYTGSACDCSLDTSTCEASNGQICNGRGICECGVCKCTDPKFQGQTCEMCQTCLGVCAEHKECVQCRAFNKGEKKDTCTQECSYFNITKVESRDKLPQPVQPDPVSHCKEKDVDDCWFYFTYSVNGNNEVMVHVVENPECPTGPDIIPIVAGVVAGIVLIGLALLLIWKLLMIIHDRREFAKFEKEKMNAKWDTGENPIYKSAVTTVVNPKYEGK

Row | IC50 (integrin α4β1) | IC50 (integrin α4β7) | Structure (SMILES)
1 | 310 nM | 0.6 nM | O=C(N[C@@H](Cc1ccc(-n2c(=O)c3ccccc3n(Cc3ccccc3)c2=O)cc1)C(=O)O)c1c(Cl)cccc1Cl [compound 122]
2 | 41 nM | 2.7 nM | Cc1cccc2nnn(-c3ccc(C[C@H](NC(=O)c4c(Cl)cccc4Cl)C(=O)O)cc3)c(=O)c12 [compound 89]
3 | 11 nM | 2.4 nM | CN1C(=O)N(c2ccc(C[C@H](NC(=O)c3c(Cl)cccc3Cl)C(=O)O)cc2)S(=O)(=O)c2ccc(C(F)(F)F)cc21 [compound 100]
4 | 1070 nM | 31.6 nM | CCC(C)n1c(=O)n(-c2ccc(C[C@H](NC(=O)c3c(Cl)cccc3Cl)C(=O)O)cc2)c(=O)c2cc([N+](=O)[O-])ccc21 (stereo partly drawn) [compound 58]
5 | 760 nM | 36 nM | O=C(N[C@@H](Cc1ccc(-n2c(=O)c3ccccc3n(Cc3ccc(Cl)c(Cl)c3)c2=O)cc1)C(=O)O)c1c(Cl)cccc1Cl [compound 115]
6 | 1580 nM | 70 nM | CC(C)CNc1nc2ccccc2c(=O)n1-c1ccc(C[C@H](NC(=O)c2c(Cl)cccc2Cl)C(=O)O)cc1 [compound 126]
7 | 1150 nM | 6 nM | CCOc1nc2cccc(C)c2c(=O)n1-c1ccc(C[C@H](NC(=O)c2c(Cl)cccc2Cl)C(=O)O)cc1 [compound 94]
8 | 55 nM | 4.1 nM | Cn1c(=O)n(-c2ccc(C[C@H](NC(=O)c3c(Cl)cccc3Cl)C(=O)O)cc2)c(=O)c2cc(N3CCCC3)ccc21 [compound 110]
9 | 11 nM | 0.6 nM | Cn1c(=O)n(-c2ccc(C[C@H](NC(=O)c3c(Cl)cccc3Br)C(=O)O)cc2)c(=O)c2ccccc21 [compound 165]
10 | 120 nM | 7.1 nM | Cn1c(=O)n(-c2ccc(C[C@H](NC(=O)c3c(Cl)cccc3C(F)(F)F)C(=O)O)cc2)c(=O)c2ccccc21 [compound 164]
11 | 230 nM | 25 nM | O=C(N[C@@H](Cc1ccc(-n2nnc3ccc(F)cc3c2=O)cc1)C(=O)O)c1c(Cl)cccc1Cl [compound 85]
12 | 44 nM | 2.8 nM | Cn1c(=O)n(-c2ccc(C[C@H](NC(=O)c3c(Cl)cccc3Cl)C(=O)O)cc2)c(=O)c2cc(NC(=O)C(C)(C)C)ccc21 [compound 106]
13 | 440 nM | 21 nM | O=C(N[C@@H](Cc1ccc(-n2c(=O)c3ccccc3n(Cc3ccccc3Cl)c2=O)cc1)C(=O)O)c1c(Cl)cccc1Cl [compound 119]
14 | 192 nM | 13 nM | O=C(N[C@@H](Cc1ccc(-n2c(=O)[nH]c3c(Cl)ccc(Cl)c3c2=O)cc1)C(=O)O)c1c(Cl)cccc1Cl [compound 76]
15 | 56 nM | 4.3 nM | CCN(C)c1ccc2c(c1)c(=O)n(-c1ccc(C[C@H](NC(=O)c3c(Cl)cccc3Cl)C(=O)O)cc1)c(=O)n2C [compound 109]
16 | 14 nM | 0.8 nM | COCC(=O)Nc1ccc2c(c1)c(=O)n(-c1ccc(C[C@H](NC(=O)c3c(Cl)cccc3Cl)C(=O)O)cc1)c(=O)n2C [compound 105]
17 | 250 nM | 20 nM | Cn1c(=O)n(-c2ccc(C[C@H](NC(=O)c3c(Cl)cccc3Cl)C(=O)NO)cc2)c(=O)c2ccccc21 [Reference Example 211]
18 | 109 nM | 14 nM | O=C(N[C@@H](Cc1ccc(-n2c(=O)c3ccccc3n(Cc3c(F)cccc3Cl)c2=O)cc1)C(=O)O)c1c(Cl)cccc1Cl [compound 121]
19 | 440 nM | 18 nM | O=C(N[C@@H](Cc1ccc(-n2c(=O)[nH]c3ncccc3c2=O)cc1)C(=O)O)c1c(Cl)cccc1Cl [compound 79]
20 | 12 nM | 2 nM | COc1ccc2c(c1)N(C)C(=O)N(c1ccc(C[C@H](NC(=O)c3c(Cl)cccc3Cl)C(=O)O)cc1)S2(=O)=O [compound 99]
21 | 80 nM | 3.3 nM | N#CCn1c(=O)n(-c2ccc(C[C@H](NC(=O)c3c(Cl)cccc3Cl)C(=O)O)cc2)c(=O)c2ccccc21 [Example 6]
22 | 385 nM | 16 nM | Cc1ccc(Cn2c(=O)n(-c3ccc(C[C@H](NC(=O)c4c(Cl)cccc4Cl)C(=O)O)cc3)c(=O)c3ccccc32)cc1 [compound 118]
23 | 450 nM | 35 nM | O=C(N[C@@H](Cc1ccc(-n2c(=O)c3ccccc3n(Cc3ccc(Cl)cc3Cl)c2=O)cc1)C(=O)O)c1c(Cl)cccc1Cl [compound 116]
24 | 180 nM | 9.6 nM | O=C(N[C@@H](Cc1ccc(-n2c(=O)[nH]c3cc(F)ccc3c2=O)cc1)C(=O)O)c1c(Cl)cccc1Cl [compound 78]
